Experimental findings from patent publication US20210403415A1, “COMPOUNDS AND METHODS TO ATTENUATE TUMOR PROGRESSION AND METASTASIS” (THE TRUSTEES OF INDIANA UNIVERSITY, priority 2018, published 2021) are described below.

The target of one experiment is TEAD4 (Homo sapiens, UniProt Q15561). The experiment is described as follows: Whole protein ESI mass spectrometry, adduct formation. In kind it is binding. Also noted: TEAD4 (217-434), TEAD4 (217-434) Cys367Ser mutant and Yap1 (Full-length) were expressed as GST-fusion proteins; GST (N, cleaved yes); made in house; host or cells: E. coli BL-21 (DE3), pGEX-6P-1. Particulars: for adduct with TEAD4 / covalent adduct formation with TEAD4: 10 μM TEAD4, 200 μM compound, 24 h at 4° C. The method, then: (§1) The samples were centrifuged at 20,000×g for […] to remove precipitants before being injected into an empty column on an Agilent 1200 liquid chromatography system (Agilent, Santa Clara, Calif.), using 80% Buffer A (H2O, 5 mM NH4OAc) and 20% Buffer B (ACN, 5 mM NH4OAc), and the masses were detected on an Agilent 6520 Accurate Mass Q-TOF.
Chain of TEAD4 (Q15561 217-434): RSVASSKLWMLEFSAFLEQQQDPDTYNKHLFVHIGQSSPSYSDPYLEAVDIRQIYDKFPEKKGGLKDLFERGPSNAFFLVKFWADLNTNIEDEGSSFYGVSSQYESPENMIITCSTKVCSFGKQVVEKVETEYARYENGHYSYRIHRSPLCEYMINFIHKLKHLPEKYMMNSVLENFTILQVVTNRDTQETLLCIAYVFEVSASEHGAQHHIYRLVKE
It was determined whether a covalent bond formed between inventive compounds and TEAD4. […] The covalent adduct formation by compound 2 was relatively fast (FIG. 3G), reaching nearly 100% adduct formation after 30 min incubation with TEAD4. Because the rate of inhibition developed over a longer timescale (FIG. 3C), compound 2 is proposed to induce a slow conformational change in TEAD4 that prevents its interaction with Yap1. To rule out the possibility that compound 2 induces slow aggregation of TEAD4, and not the proposed slow conformational change, GST-TEAD4 was incubated with DMSO compound 2 for 24 h at 4° C., followed by injection into an SEC column (FIG. 3H). […] A slight increase in dimer formation for the TEAD4 sample incubated with compound 2 occurred compared to the sample incubated with DMSO. […] Furthermore, it is highly unlikely that Cys-367 oxidation was responsible for the lack of 100% inhibition at longer times since it has been shown that covalent bond formation is rapid and complete within less than an hour.

The next experiment deals with T1, TEAD4 Cys367Ser mutant (Homo sapiens, UniProt Q15561, C367S).
T1 construct: TEAD4 (217-434) Cys367Ser mutant and Yap1 (Full-length) were expressed as GST-fusion proteins; made in house; host or cells: E. coli BL-21 (DE3), pGEX-6P-1
T1 sequence (Q15561 217-434 C367S): as the sequence (Q15561 217-434) above, with C151S counted along it
The experiment can be described thus: Whole protein ESI mass spectrometry, adduct formation with mutant. Particulars: 5 μM mutant, 12.5, 50, 200 μM at 4° C., 24 h. In kind it is binding. The method, then:
as §1
FIG. 4A illustrates analysis by ESI mass spectrometry after 10 μM TEAD4 Cys367Ser mutant was incubated with 200 μM compound for 24 h at 4° C. FIG. 4B illustrates measurement of fluorescence polarization due to binding when increasing concentration of TEAD4 Cys367Ser mutant was mixed with 16 nM FAM-Yap60-99 peptide (mean±s.d.; n=3). FIG. 4C illustrates measurement of fluorescence polarization due to binding when TEAD4 Cys367Ser mutant was incubated with increasing concentration of compounds for 24 h at 4° C. followed by addition of FAM-Yap60-99 (mean±s.d.; n=3).

Experiment [1] concerns the target T2, TEAD4.Yap1 interaction (Homo sapiens, UniProt Q15561). The experiment can be described thus: Fluorescence polarization, GST-TEAD4 with FAM-Yap60-99 peptide. Particulars: for inhibition of TEAD4.Yap1 interaction: FP assay, 24 h at 4° C.; for inhibition / maximum inhibition of TEAD4.Yap1 interaction: 24 h incubation at 4° C.; for t1/2^∞ (half-life of inactivation): corresponding to kinact. Also noted: TEAD4 (217-434), TEAD4 (217-434) Cys367Ser mutant and Yap1 (Full-length) were expressed as GST-fusion proteins; made in house; host or cells: E. coli BL-21 (DE3), pGEX-6P-1. Format: binding. The protocol: (§2) GST-TEAD4, GST-TEAD4 Cys367Ser mutant or HIS-TEAD2 interaction with Yap1 was investigated using a fluorescently-labeled peptide (FAM-Yap60-99), consisting of FAM-labeled TEAD-binding peptide fragment of Yap1 (FAM-[…] TVPMCLRKLPASFCKPP), which has a disulfide bridge (American Peptide, Sunnyvale, Calif.). Addition of FAM-Yap60-99 to the TEAD was followed by measurement of changes in polarization. 40 μL of 125 nM GST-TEAD4 WT or GST-TEAD4 Cys367Ser in assay buffer (PBS with 0.01% v/v Triton-X100) or 40 μL of 64 nM HIS-TEAD2 was added to a 384-well black polystyrene plate (Cat. No. 262260; Nunc, Roskilde, Denmark) and incubated with 5 μL of […] serially diluted compounds in assay buffer supplemented with 20% v/v DMSO for 24 h at 4° C. Finally, 5 μL of 160 nM FAM-Yap60-99 peptide was added, the plate centrifuged, and the polarization was measured on an Envision Multilabel Plate Reader (PerkinElmer, Waltham, Mass.) using a filter set with excitation and emission wavelengths of 485 and 535 nm, respectively. Percent inhibition was calculated as relative to a minimum inhibition control, which is without compound, and a maximum inhibition control, which is without a TEAD.
For the determination of the inhibition efficiency kinact/K1, the protein compound incubation time was varied between […], prior to the addition of the FAM-Yap60-99 peptide and fluorescence polarization measurements. The progressive decrease in TEAD activities were plotted against time for all 10 concentrations ([…]) of the compounds and the observed rate of inhibition (kobs) was calculated by fitting a simple exponential function.
The observed rate of inhibition was then plotted against the concentration of the compound and a […] function kobs=kinact[Inhibitor]/K1+[Inhibitor] was fitted to determine the kinact and K1 values.
(Polarisation of emitted light reports the rotation of a fluorescent probe.)

In experiment [2] the target is T2, TEAD4.Yap1 interaction. Described as above. In kind it is binding. Also noted: TEAD4 (217-434), TEAD4 (217-434) Cys367Ser mutant and Yap1 (Full-length) were expressed as GST-fusion proteins; made in house; host or cells: E. coli BL-21 (DE3), pGEX-6P-1. Particulars: 0.5, 6, 24, 48 h incubation at 4° C., 0.1-100 μM.
Another experiment has as its target T3, TEAD2 binding to Yap1 (Homo sapiens, UniProt Q15562).
T3 construct: TEAD2 (217-447) was expressed as N-terminal HIS-fusion protein; made in house; host or cells: E. coli BL-21 (DE3), pET-28a
The experiment is described as follows: Fluorescence polarization, HIS-TEAD2 with FAM-Yap60-99 peptide. Particulars: 24 h at 4° C. The protocol:
as §2

For experiment [3], the system named is patient-derived GBM43 glioblastoma spheroids. The experiment can be described thus: GBM43 spheroid viability (Alamar blue). In kind it is cell-based, human. Particulars: Homo sapiens; three-dimensional spheroids; read-out: EC50, inhibition of GBM43 spheroid growth. The method, then: Early-passage GBM43 cells were cultured in ultralow adherence plates (Corning Inc.) at 1 to 2×10^3 cells/mL in DMEM supplemented with 1% […] (Invitrogen), 2% B27 (Invitrogen), 25 ng/mL epidermal growth factor (EGF, 25 ng/mL fibroblast growth factor (FGF) (R&D Systems, Inc.), […], 2 ng/mL platelet growth factor, and 100 ng/mL each of penicillin and streptomycin (Invitrogen Inc.). Individual cells were recovered from spheres by incubation with Accutase (Sigma-Aldrich) for 10-15 minutes. Cells (50-100/well) were then seeded in fresh sphere-forming media in 96-well plates. After 2-3 days, Neurospheres containing 6 to 8 cells were treated with compounds 1, 2, and 5.
HEK-293 were cultured in DMEM with glutamine (Cellgro, Manassas, Va.) supplemented with 10% FBS and 1% penicillin/streptomycin in a 5% CO2 atmosphere at 37° C. Tumors were expanded by passage in the flank of NOD/SCIDγnull mice. To generate GBM43 cell lines, tumors were harvested, disaggregated, and maintained in 2.5% FBS for 14 days on Matrigel-coated plates (BD Biosciences) to remove murine fibroblasts. In-vitro GBM43 cell lines were propagated in DMEM with 10% FBS for no more than 7 passages. Cell line identity was confirmed by DNA fingerprint analysis (IDEXX BioResearch) for species and baseline short-tandem repeat analysis testing. GBM43 spheroids were generated by plating early-passage cells at 2.5×10^4 cells per well in 96-well ultralow attachment plates (Corning Inc.) in DMEM/F12 (1:1; GIBCO) supplemented with 2% B27 supplement (GIBCO), 20 ng/mL epidermal growth factor (EGF), and 20 ng/mL fibroblast growth factor (FGF) (Peprotech) for 2 days. The spheroids were then treated with compounds 1, 2, and 5 and growth analyzed by Alamar blue staining.
(In general: The colour change of resazurin is a common sign of viable cells or microbes.)

[4] abbreviates: as tested described herein, read-out: EC50 in the EC50 assay.

Read-outs that look alike come from different tables or passages of the source.

T2 sequence (Q15561 217-434): as the sequence (Q15561 217-434) above
T3 sequence (Q15562 217-447): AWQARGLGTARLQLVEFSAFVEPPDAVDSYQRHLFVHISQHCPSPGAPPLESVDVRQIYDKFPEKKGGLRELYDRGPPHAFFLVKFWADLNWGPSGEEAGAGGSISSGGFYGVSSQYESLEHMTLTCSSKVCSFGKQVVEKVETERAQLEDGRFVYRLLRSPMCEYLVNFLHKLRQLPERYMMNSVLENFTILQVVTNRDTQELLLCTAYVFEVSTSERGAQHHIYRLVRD

As for `NC(=O)CI` [iodoacetamide, reference compound], the “adduct formation with TEAD4” value at TEAD4 (5 μM TEAD4, 12.5, 50, 200 μM at 4° C., after 6 h) is on record as “modified by a single adduct”. Further, at TEAD4 Cys367Ser mutant, the “modification of TEAD4 Cys367Ser mutant” value was “no modification of the protein, except for a small adduct that was detected only at 200 μM”. Also, the “inhibition of TEAD4.Yap1 interaction” value on TEAD4.Yap1 interaction [1] is listed as “unable to inhibit”.
Take `O=C(CCl)c1ccccc1Nc1cccc(-c2cccs2)c1` [Compound 8, 2-chloro-1-(2-((3-(thiophen-2-yl)phenyl)amino)phenyl)ethanone]: on TEAD4, the “adduct with TEAD4” value was 100% and the “covalent adduct formation with TEAD4” value is reported as “formed single adducts”. The “inhibition of TEAD4.Yap1 interaction” value against TEAD4.Yap1 interaction [1] was “lack of TEAD4 inhibition”.
One may read the kinact as the maximal first-order rate at which the target is inactivated. Usually EC50 stands for the concentration at which the effect is half-maximal. In the case of `COc1ccc(C(=O)CCl)c(Nc2cccc(C(F)(F)F)c2)c1` [Compound 6, 2-chloro-1-(4-methoxy-2-((3-(trifluoromethyl)phenyl)amino)phenyl)ethanone], the kinact at TEAD4.Yap1 interaction [2] (read-out: rate of inactivation kinact (converted)) is 9.44e-06 s⁻¹. In addition, the “covalent adduct formation with TEAD4” value on TEAD4 is on record as “formed single adducts”. For the same molecule, on TEAD4.Yap1 interaction [1], the “inhibition / maximum inhibition of TEAD4.Yap1 interaction” value is reported as 51% and the “t1/2^∞ (half-life of inactivation)” value turned out to be 20 h. Besides, the EC50 on TEAD4.Yap1 interaction [1] (24 h incubation with TEAD4 at 4° C., read-out: apparent EC50, inhibition of TEAD4.Yap1 protein-protein interaction) is 2.3 ± 0.8 µM. The “inhibition of TEAD2 binding to Yap1” value on TEAD2 binding to Yap1 is “much weaker inhibitors of TEAD2 compared to TEAD4”.
Turning to `O=C(CCl)Nc1ccccc1Nc1cccc(C(F)(F)F)c1` [Example 11, 2-chloro-N-(2-((3-(trifluoromethyl)phenyl)amino)phenyl) acetamide], on TEAD4.Yap1 interaction [1] (as tested described herein), the “max (inhibition) in the EC50 assay” value turned out to be 50%. Besides, the EC50 at TEAD4.Yap1 interaction [1] (setting [4]) came out at 11.7 µM.
The matching figures for `C=CC(=O)Nc1ccccc1Nc1cccc(C(F)(F)F)c1` [Example 12]: 23% and 13.7 µM.
For the molecule `Cn1nnc2c(C(N)=O)ncn2c1=O` [Temozolomide, temozolomide, reference compound], the EC50 in experiment [3] worked out at 244 ± 24 µM.
In the case of `O=C(CCl)c1ccccc1Nc1ccc(-c2cccs2)cc1` [Compound 7, 2-chloro-1-(2-((4-(thiophen-2-yl)phenyl)amino)phenyl)ethanone], on TEAD4, the “adduct with TEAD4” value is given as 100% and the “covalent adduct formation with TEAD4” value was “formed single adducts”. Moreover, at TEAD4.Yap1 interaction [1], the “inhibition of TEAD4.Yap1 interaction” value is reported as “lack of TEAD4 inhibition”.
For `O=C(CF)c1ccccc1Nc1cccc(C(F)(F)F)c1` [Example 10, 2-fluoro-1-(2-((3-(trifluoromethyl)phenyl)amino)phenyl) ethanone], on TEAD4.Yap1 interaction [1], the “inhibition of TEAD4.Yap1 interaction” value is given as “minimal inhibition”.
Turning to `COCCOc1cccc(Nc2ccccc2C(=O)CCl)c1` [Compound 4, 2-chloro-1-(2-((3-(2-methoxyethoxy)phenyl)amino)phenyl)ethanone], the maximal inactivation rate constant (kinact) at TEAD4.Yap1 interaction [2] (read-out: maximum rate of inactivation (kinact) (converted)) was 2.78e-06 s⁻¹. On TEAD4, the “covalent adduct formation with TEAD4” value is “formed single adducts”. At TEAD4.Yap1 interaction [1], the “inhibition / maximum inhibition of TEAD4.Yap1 interaction” value stood at 31% and the “t1/2^∞ (half-life of inactivation)” value came out at 67.3 h. For the same molecule, the “apparent EC50, inhibition of TEAD4.Yap1 protein-protein interaction” value on TEAD4.Yap1 interaction [1] (24 h incubation with TEAD4 at 4° C.) is on record as “substantially lower (nearly an order of magnitude) than its parent compound 2”. Further, the “inhibition of TEAD2 binding to Yap1” value on TEAD2 binding to Yap1 is “much weaker inhibitors of TEAD2 compared to TEAD4”.
